The target in data set [1] is T1, CYP2B6 (Homo sapiens, UniProt P20813).
T1 construct: pre-incubation of the human liver microsomes with the test compound; tissue Corning; host or cells: human liver microsomes
T1 sequence (P20813 1-491): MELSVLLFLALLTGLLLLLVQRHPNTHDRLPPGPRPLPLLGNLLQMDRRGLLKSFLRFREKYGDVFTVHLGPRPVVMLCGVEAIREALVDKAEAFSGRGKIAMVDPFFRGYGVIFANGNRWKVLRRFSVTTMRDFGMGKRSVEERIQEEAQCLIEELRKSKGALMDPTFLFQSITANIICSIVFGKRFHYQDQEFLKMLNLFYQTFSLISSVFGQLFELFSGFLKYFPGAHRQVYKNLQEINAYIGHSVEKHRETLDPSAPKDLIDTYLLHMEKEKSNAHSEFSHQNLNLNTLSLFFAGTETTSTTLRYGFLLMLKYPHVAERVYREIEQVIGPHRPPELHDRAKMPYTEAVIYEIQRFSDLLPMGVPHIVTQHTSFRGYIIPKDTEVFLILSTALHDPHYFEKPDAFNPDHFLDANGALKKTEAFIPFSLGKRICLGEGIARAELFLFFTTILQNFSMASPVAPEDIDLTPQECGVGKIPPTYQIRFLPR
The data set can be described thus: CYP inhibition / time-dependent inhibition, CYP2B6_Bupropion. It is filed as in vitro ADME. The conditions noted are these: role: inhibitor.
Method: Pre-incubation with human liver microsomes (HLMs): The TDI inactivation potency on CYP enzymatic activities was evaluated through pre-incubation with HLMs (Corning). […] Concurrently, a set of known time-dependent inactivators was also prepared in duplicate for comparison. Following this, NADPH (1.0 mM) was added to one group (Group 1), and an equal volume of potassium phosphate buffer to the second group (Group 2), marking the beginning of a 30-minute pre-incubation at 37° C.

Data set [2] is described as follows: CYP inhibition / time-dependent inhibition, CYP3A4_Midazolam. It is filed as in vitro ADME, human. The conditions noted are these: human, liver microsomes, role: inhibitor. The method in brief: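 Human liver microsomes (0.1 mg/mL) were pre-incubated 30 min at 37° C with compound (0–50.0 μM, 8 concentrations) with or without 1.0 mM NADPH, then given marker substrate (± NADPH) for an isoform-dependent time, e.g. midazolam 2.0 μM for 3 min with CYP3A. Metabolites were quantified by LC-MS/MS as analyte/IS peak area ratios.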
(In general: Microsomes from liver hold many membrane-bound enzymes, among them those of drug oxidation.)

A short description of data set [3]: Human hepatocyte stability. The conditions noted are these: human hepatocytes; for half-life: read-out: Hepatocytes (human) T1/2. Format: in vitro ADME.
Data set [4] is described as follows: CYP inhibition / time-dependent inhibition, CYP3A4_Testosterone. Format: in vitro ADME. To be noted: human, liver microsomes, role: inhibitor, substrate testosterone. As to the method:
(§1) The time-dependent inactivation potency of the test compound to CYP enzymatic activities was assessed by the pre-incubation of the human liver microsomes with the test compound in the presence and absence of NADPH, followed by the incubation with the discrete marker substrates, as follows.
(§2) Pre-incubation with human liver microsomes (HLMs): The TDI inactivation potency on CYP enzymatic activities was evaluated through pre-incubation with HLMs (Corning). A liver microsome mixture at a concentration of 0.1 mg/mL, and the test compound at 8 different concentrations (0, 0.05, 0.165, 0.5, 1.65, 5.0, 16.5, or 50.0 μM) was warmed at 37° C. for 10 minutes. Concurrently, a set of known time-dependent inactivators was also prepared in duplicate for comparison. Following this, NADPH (1.0 mM) was added to one group (Group 1), and an equal volume of potassium phosphate buffer to the second group (Group 2), marking the beginning of a 30-minute pre-incubation at 37° C.
(§3) Incubation: After pre-incubation, the marker substrate, or marker substrate plus NADPH was added to the mixture, thereby initiating the incubation. The duration of the incubation was dependent on the type of CYP isoform being evaluated. For example, with the CYP3A isoform, the mixture was incubated over 3 minutes utilizing midazolam as the marker substrate (2.0 μM), verapamil as the standard inactivator (3.5 μM).
(§4) Termination of Reaction: Following the incubation, ice-cooled acetonitrile containing the internal standard (IS) was added to halt the reactions. Metabolites generated from the marker substrates were then measured via LC-MS/MS, assessed based on peak area ratios of the analyte to IS.

For data set [5], the target named is T2, opioid mu receptor (Homo sapiens, UniProt P35372).
T2 construct: Eurofins DiscoverX, USA (assay provider)
T2 sequence (P35372 whole entry): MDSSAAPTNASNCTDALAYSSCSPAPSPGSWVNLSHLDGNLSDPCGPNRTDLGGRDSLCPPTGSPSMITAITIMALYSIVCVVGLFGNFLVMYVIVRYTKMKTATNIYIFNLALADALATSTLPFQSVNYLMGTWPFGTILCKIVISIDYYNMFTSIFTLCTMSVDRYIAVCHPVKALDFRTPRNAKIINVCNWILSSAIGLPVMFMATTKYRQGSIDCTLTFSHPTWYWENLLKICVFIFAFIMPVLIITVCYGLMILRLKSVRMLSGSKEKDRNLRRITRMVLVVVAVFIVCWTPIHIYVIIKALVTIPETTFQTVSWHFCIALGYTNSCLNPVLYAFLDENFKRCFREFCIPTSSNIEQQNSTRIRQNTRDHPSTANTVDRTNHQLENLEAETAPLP
The data set can be described thus: Functional selectivity panel, opioid mu receptor. Format: biochemical. As to the method:
(§5) A broad panel of 78 recombinant targets was tested for pharmacologic activity in vitro through a variety of functional assays (Eurofins DiscoverX, USA), as part of the National Institute of Neurological Disorders and Stroke (NINDS) Preclinical Screening Platform for Pain (PSPP) program. The biological targets for the in vitro profiling have been selected based on avoiding opioid receptor stimulation and targets known to be associated with adverse events or targeted by drugs of abuse. […] For each test, a reference compound was evaluated at the target of interest as a positive control.

Data set [6] addresses T3, CYP2C19 (Homo sapiens, UniProt P33261).
T3 construct: pre-incubation of the human liver microsomes with the test compound; tissue Corning; host or cells: human liver microsomes
The data set can be described thus: CYP inhibition / time-dependent inhibition, CYP2C19_S-Mephenytoin. It is filed as in vitro ADME. The conditions noted are these: role: inhibitor. The method, then:
as §1, §2, §3, §4

Data set [7] deals with T4, CYP2C9 (Homo sapiens, UniProt P11712).
T4 construct: pre-incubation of the human liver microsomes with the test compound; tissue Corning; host or cells: human liver microsomes
T4 sequence (P11712 whole entry): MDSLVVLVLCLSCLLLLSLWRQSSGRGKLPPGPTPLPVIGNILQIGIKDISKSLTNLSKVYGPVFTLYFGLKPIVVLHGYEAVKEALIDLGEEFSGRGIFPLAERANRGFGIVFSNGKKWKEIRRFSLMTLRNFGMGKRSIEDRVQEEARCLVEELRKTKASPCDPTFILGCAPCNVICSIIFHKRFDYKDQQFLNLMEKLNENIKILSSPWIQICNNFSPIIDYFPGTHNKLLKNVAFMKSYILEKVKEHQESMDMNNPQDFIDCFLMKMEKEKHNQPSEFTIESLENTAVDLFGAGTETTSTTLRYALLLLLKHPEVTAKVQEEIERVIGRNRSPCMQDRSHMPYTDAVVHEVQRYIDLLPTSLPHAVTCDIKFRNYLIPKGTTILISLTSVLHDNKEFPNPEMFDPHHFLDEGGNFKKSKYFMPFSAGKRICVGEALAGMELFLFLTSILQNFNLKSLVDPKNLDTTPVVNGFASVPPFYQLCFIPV
The data set can be described thus: CYP inhibition / time-dependent inhibition, CYP2C9_Diclofenac. It is filed as in vitro ADME. The conditions noted are these: role: inhibitor. The method, then: as §1, §2, §3, §4

Data set [8] has as its system rats. As to the kind of experiment: Core body temperature. It is filed as in vivo, rat. The method, then:
Core Body Temperature: Following two days of habituation to the measurement method, the body temperature was measured on study day for baseline values and then again post-dosing in the time points indicated in the figure. Body temperature was measured using a probe gently inserted into the animal anus using a corn oil lubricant (C8267, Sigma-Aldrich, IL).

Data set [9] deals with rats. The data set can be described thus: Accelerating rotarod. Format: in vivo, rat. As to the method: Rotarod: There were two days of training in which rats were trained at a constant speed of 5 RPM for 180 seconds. After each fall the rats were placed back on the rotating rod until 180 seconds were reached. Then, the actual test started on study day 0 using the accelerating rotarod methodology. Animals were placed on the rod, which was accelerated 5-40 RPM over 180 seconds. Acceleration rate (0.19 RPM/second) was calculated from delta velocity (v2−v1) divided by delta time (t2−t1). The time to the first fall of each animal was documented, in addition to the distance and speed.

The target in data set [10] is T5, adrenergic β2 (Homo sapiens, UniProt P07550).
T5 construct: Eurofins DiscoverX, USA
T5 sequence (P07550 whole entry): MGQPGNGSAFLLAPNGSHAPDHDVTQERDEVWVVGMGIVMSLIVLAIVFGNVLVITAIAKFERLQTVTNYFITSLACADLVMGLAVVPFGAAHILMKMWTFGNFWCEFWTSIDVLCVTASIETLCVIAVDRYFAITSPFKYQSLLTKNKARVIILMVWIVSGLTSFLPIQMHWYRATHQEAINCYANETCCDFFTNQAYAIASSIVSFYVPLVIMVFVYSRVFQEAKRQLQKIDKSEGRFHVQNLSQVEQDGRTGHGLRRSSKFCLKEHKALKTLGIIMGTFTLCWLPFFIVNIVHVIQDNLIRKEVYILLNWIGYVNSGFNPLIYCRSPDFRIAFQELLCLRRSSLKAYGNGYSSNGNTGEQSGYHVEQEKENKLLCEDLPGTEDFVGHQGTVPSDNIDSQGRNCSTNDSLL
As to the kind of experiment: Functional selectivity panel, adrenergic β2. Format: biochemical. As to the method:
as §5

Data set [11] concerns the target T6, kappa opioid receptors (Homo sapiens, UniProt P41145).
T6 construct: Eurofins DiscoverX, USA
As to the kind of experiment: Functional selectivity panel, kappa opioid receptors. It is filed as biochemical. The method, then:
as §5

Data set [12] deals with T7, opioid delta receptor (Homo sapiens, UniProt P41143).
T7 construct: Eurofins DiscoverX, USA
T7 sequence (P41143 whole entry): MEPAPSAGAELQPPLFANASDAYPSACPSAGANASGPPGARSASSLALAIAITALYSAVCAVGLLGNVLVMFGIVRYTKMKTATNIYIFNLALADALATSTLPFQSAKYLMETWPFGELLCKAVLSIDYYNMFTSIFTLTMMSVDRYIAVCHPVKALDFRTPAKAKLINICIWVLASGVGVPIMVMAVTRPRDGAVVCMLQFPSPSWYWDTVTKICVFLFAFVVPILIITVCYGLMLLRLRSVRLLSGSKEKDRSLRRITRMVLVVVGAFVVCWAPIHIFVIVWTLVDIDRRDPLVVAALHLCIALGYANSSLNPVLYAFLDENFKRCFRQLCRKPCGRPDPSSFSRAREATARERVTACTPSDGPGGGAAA
As to the kind of experiment: Functional selectivity panel, opioid delta receptor. It is filed as biochemical. As to the method:
as §5

Data set [13] can be described thus: Ligand-lipophilicity efficiency (LLE). Format: physicochemical. The text has this: Ligand-lipophilicity efficiency (LLE) is a parameter used in drug design and drug discovery to evaluate the quality of research compounds, linking potency and lipophilicity.
To follow LLE values, the following equation was used: […]
Suitable LLE value are typically higher than 3 or higher than 5.

Each structure is given as a SMILES string. Like-named read-outs stand apart in the source and are kept apart here. Some results are limits rather than exact numbers.

T3 sequence (P33261 whole entry): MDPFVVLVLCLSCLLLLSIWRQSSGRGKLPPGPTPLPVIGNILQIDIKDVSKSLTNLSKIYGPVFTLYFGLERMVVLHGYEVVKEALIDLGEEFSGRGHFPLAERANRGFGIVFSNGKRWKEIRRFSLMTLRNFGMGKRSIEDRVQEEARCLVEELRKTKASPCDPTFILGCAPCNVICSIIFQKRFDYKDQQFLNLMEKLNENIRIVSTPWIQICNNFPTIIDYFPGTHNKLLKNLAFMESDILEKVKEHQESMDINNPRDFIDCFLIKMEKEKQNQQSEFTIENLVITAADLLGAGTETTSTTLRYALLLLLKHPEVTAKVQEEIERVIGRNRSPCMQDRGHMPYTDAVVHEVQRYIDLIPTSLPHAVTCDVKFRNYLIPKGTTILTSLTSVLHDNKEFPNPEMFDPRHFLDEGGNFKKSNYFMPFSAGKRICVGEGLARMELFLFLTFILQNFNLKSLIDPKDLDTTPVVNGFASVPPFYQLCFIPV
T6 sequence (P41145 whole entry): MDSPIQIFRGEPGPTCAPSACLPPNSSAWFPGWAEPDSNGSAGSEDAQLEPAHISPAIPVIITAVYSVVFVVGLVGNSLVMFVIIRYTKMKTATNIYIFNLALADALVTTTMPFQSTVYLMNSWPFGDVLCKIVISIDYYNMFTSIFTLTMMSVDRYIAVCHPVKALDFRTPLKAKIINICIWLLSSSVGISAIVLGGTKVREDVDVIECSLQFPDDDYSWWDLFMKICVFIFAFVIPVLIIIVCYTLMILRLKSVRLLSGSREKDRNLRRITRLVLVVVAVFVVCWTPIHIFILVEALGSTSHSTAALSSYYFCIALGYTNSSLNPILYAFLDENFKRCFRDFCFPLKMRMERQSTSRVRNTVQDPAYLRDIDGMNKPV

For orientation: CLint scaled means a measure of how fast metabolising enzymes remove a compound, apart from limits set by blood flow. A high value points to faster metabolism. Broadly, the EC50 is the concentration needed to bring the measured effect to its halfway point. A low value points to higher potency in that assay. For `O=C(Cc1cncc(-n2cc(Cl)c3cc(Cl)cc(Cl)c32)c1)N[C@@H]1COC[C@H]1O` [Compound 661], the IC50 stood at 8.91 µM in [1] ((+)NADPH pre-incubation, substrate bupropion, read-out: IC50 (+)NADPH CYP2B6_Bupropion); 11 µM in data set [1] ((−)NADPH pre-incubation, substrate bupropion, read-out: IC50 (−)NADPH CYP2B6_Bupropion); 19.5 µM in data set [2] ((+)NADPH pre-incubation, substrate midazolam 2.0 μM, read-out: IC50 (+)NADPH CYP3A4_Midazolam); 30.5 µM in data set [2] ((−)NADPH pre-incubation, substrate midazolam 2.0 μM, read-out: IC50 (−)NADPH CYP3A4_Midazolam); 6 µM in data set [5]; 18.5 µM in [6] ((+)NADPH pre-incubation, substrate S-mephenytoin, read-out: IC50 (+)NADPH CYP2C19_S-Mephenytoin). The IC50 came to 15.6 µM in data set [6] ((−)NADPH pre-incubation, substrate S-mephenytoin, read-out: IC50 (−)NADPH CYP2C19_S-Mephenytoin); 13 µM in [7] ((+)NADPH pre-incubation, substrate diclofenac, read-out: IC50 (+)NADPH CYP2C9_Diclofenac); 14.8 µM in [7] ((−)NADPH pre-incubation, substrate diclofenac, read-out: IC50 (−)NADPH CYP2C9_Diclofenac); 4 µM in [10] (read-out: adrenergic β2 IC50); 10 µM in data set [12]. Moreover, the CLint scaled in data set [3] worked out at 73.8 mL/min/kg. Also, the half-life in data set [3] stood at 52.2 min. Moreover, the IC50 at 0.5 h in [4] ((+)NADPH pre-incubation) is 7.36 µM; in data set [4] ((−)NADPH pre-incubation) it was 10.1 µM. Further, the “Core body temperature” value was “no significant change in core body temperature” in data set [8] (20 and 50 mg/kg PO); “no effects on core body temperature” in data set [8] (up to 300 mg/kg, 1-24 hours post-dose). Further, the “Rotarod performance” value in data set [9] (20 and 50 mg/kg PO, 1 and 4 hour post-dose) is listed as “did not affect rotarod performance”. In [11] (PAM), the EC50 was 7 µM.
Regarding `O=C(Cc1cc(-n2cc(Cl)c3cc(Cl)cc(Cl)c32)ccc1F)NCCO` [Compound 627], in [3], the CLint scaled came to 190 mL/min/kg and the half-life is 20.3 min.
The compound `Cc1cn(-c2ccc(F)c(CC(=O)NCC(C)(C)O)c2)c2c(Cl)cc(Cl)cc12` [Compound 421] returned an LLE in [13] of 2.1.
Take `O=C(Cc1nccc(-n2cc(Cl)c3cc(Cl)cc(Cl)c32)n1)NC1COCC1O` (stereo not drawn) [Compound 760]: the IC50 is 34.9 µM in data set [1] (Table 9, read-out: CYP inhibition IC50 CYP2B6); over 50 µM in [2] (Table 9, substrate midazolam, read-out: CYP inhibition IC50 CYP3A-Midazolam); 19.8 µM in data set [4] (Table 9, read-out: CYP inhibition IC50 CYP3A-Testosterone); over 50 µM in data set [6] (Table 9, read-out: CYP inhibition IC50 CYP2C19); 44.3 µM in data set [7] (Table 9, read-out: CYP inhibition IC50 CYP2C9); 46 µM in data set [10] (antagonist, read-out: IC/EC50 Adrenergic β2-antagonist). The “Effect on Opioid mu” value in [5] (up to 10 micromolar) was “no effect”. Besides, in data set [8] (up to 300 mg/kg oral), the “Core body temperature” value is given as “displayed safety potential at up to 300 mg/kg oral dosing”. Besides, in data set [9] (up to 300 mg/kg oral), the “Rotarod” value is recorded as “displayed safety potential at up to 300 mg/kg oral dosing”. For the same compound, the “Effect on Opioid kappa” value in [11] (up to 10 micromolar) is “no effect”. The “Effect on Opioid-delta” value in data set [12] (up to 10 micromolar) is listed as “no effect”.
As to `CC(C)c1cc(Cl)cc(Cl)c1Nc1ccc(F)c(CC(=O)NCC(C)(C)O)c1` [NH91, reference compound], in data set [13], the LLE turned out to be 1.6, the “LLE Kv 7.2/7.3” value was found to be 0.8 and the “LLE TRPV1” value was −0.35.

Source of the values: patent US20260327211A1, “MODULATORS OF A POTASSIUM CHANNEL AND OF TRPV1 CHANNEL AND USES THEREOF” (Bsense Bio Therapeutics Ltd., priority 2023, published 2026).
